Results taken from paper PMC5372988, “Bulgecin A: The Key to a Broad-Spectrum Inhibitor That Targets Lytic Transglycosylases” (Antibiotics, 2017).

Target: T1, LtgA (Neisseria meningitidis, UniProt Q9JXP1)
T1 construct: gene NMB1949; GST fusion from pGEX-4T1, GST cut by thrombin; E. coli BL21(DE3) Gold; 577 residues in model
T1 sequence (Q9JXP1 26-616): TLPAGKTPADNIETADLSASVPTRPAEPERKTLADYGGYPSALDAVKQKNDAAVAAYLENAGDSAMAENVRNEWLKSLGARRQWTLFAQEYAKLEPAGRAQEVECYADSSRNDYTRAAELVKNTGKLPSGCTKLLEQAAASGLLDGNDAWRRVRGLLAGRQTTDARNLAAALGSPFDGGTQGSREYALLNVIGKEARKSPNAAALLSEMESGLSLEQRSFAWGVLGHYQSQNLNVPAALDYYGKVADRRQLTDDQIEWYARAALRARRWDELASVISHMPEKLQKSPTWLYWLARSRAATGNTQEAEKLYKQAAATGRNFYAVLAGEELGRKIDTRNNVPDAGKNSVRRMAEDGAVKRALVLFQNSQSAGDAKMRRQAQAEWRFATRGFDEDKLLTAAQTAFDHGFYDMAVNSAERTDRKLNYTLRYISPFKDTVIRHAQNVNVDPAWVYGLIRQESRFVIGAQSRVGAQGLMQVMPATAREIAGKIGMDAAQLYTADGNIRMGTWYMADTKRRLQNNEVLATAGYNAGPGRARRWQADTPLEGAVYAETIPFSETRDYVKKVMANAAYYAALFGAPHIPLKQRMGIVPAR
Experiment: RP-HPLC of muropeptides released from N. meningitidis peptidoglycan
Format: biochemical

CC(=O)N[C@H]1[C@H](O[C@H]2C[C@@H](C(=O)NCCS(=O)(=O)O)N[C@@H]2CO)O[C@H](CO)[C@@H](OS(=O)(=O)O)[C@@H]1O [bulgecin A]
inhibition at 90 µM: 66 ± 9.4%
